Laboratory results taken from publication PMC12120661, “Synthesis and Biological Evaluation of 4‑(4-Nitrophenyl)‑1H‑1,2,3-triazole Derivatives as Antitrypanosomal Agents” (ACS Omega, 2025).
Read-outs that look alike come from different tables or passages of the source.

Legend:
[1] = target: trans-sialidase (TcTS); details: literature, cited from earlier work; for inhibition of trans-sialidase: in words
[2] = system: T. cruzi Tulahuen CL2 β-galactosidase strain; experiment: Antitrypanosomal screening, anti-T. cruzi (trypomastigote) activity, CPRG photometric method; type: cell-based; details: Trypanosoma cruzi; Tulahuen CL2 β-galactosidase strain on MRC-5SV2; values in parentheses mean ± SEM of two experiments
Experimental: A preliminary assay was conducted to evaluate the analogs’ in vitro cytotoxicity and antitrypanosomatid activity against T. cruzi Tulahuen strain (Table ). […] However, the promising results of analog 16 encouraged us to conduct more in-depth studies on this compound.
Anti-parasitic assays were conducted following established protocols outlined in earlier literature. In brief, for assessing anti-T. cruzi activity, the Tulahuen CL2 β-galactosidase strain (nifurtimox-sensitive) was employed and maintained on MRC-5SV2 (human lung fibroblast). A total of 4 × 10^3 cells were infected with 4 × 10^4 parasites per well. The synthesized analogs were tested at concentrations ranging from 1.56 to 50.00 μM. Parasite burdens were evaluated after the addition of the substrate CPRG (chlorophenol red ß-D-galactopyranoside). The change in color was measured spectrophotometrically at 540 nm after 4 h of incubation at 37°C. In all assays, parasite growth was compared to untreated-infected controls (100% growth) and noninfected controls (0% growth). Results were expressed as the percentage of parasite reduction at different drug concentrations and used to calculate IC50 values from the dose–response curves.

[3] = system: T. cruzi intracellular amastigotes (Colombian strain) in LLC-MK2 cells; experiment: Antiamastigote activity, infection index, treatment after infection, LLC-MK2; type: cell-based, Trypanosoma cruzi; details: infected LLC-MK2, 48 h treatment after infection
Experimental: (§1) Considering the dynamics of T. cruzi infection in humans, characterized by an increase in parasitic load through intracellular replication of amastigote forms in various cell types, we evaluated the action of the compounds in LLC-MK2 (epithelial cells) and C2C12 (myoblasts) using an in vitro infection model.
(§2) The antiamastigote activity was assessed by calculating the infection index, defined as the percentage of infected cells multiplied by the mean number of amastigotes per cell. Noninfected control cells were subjected to identical treatment conditions to evaluate the cytotoxicity of the compounds (CC50). This comprehensive approach allowed for the simultaneous assessment of antiparasitic efficacy and compound-induced cytotoxicity, offering valuable insights into their therapeutic potential.
(§3) In the infection plate each well was added 50 μL of cold methanol for cell fixation. The plate was kept at −20 °C for 1 h. After this period, the wells were blocked with 50 μL of PBS 1X-Saponin 0.1 + 10% rabbit serum for 10 min at room temperature. Following, the wells were washed four times with PBS 1X-Saponin 0.1% and 50 μL of the same solution was added to each well, incubating for 20 min at room temperature. Subsequently, 50 μL of PBS 1X-Saponin 0.1% + anti-T. cruzi antibody (from serum of infected patients) at a 1:10 dilution was added, and the plate was incubated for 1 h at room temperature. The wells were then washed four times with PBS 1X-Saponin 0.1%, and 50 μL of PBS 1X-Saponin 0.1% + antihuman IgG-FITC at a 1:200 dilution was added. The plate was incubated wrapped in aluminum foil for 30 min. After incubation, the plate was washed four times with PBS 1X-Saponin 0.1%, and 50 μL of PBS 1X was added to all wells after the final wash. For nuclear staining, the plate, already stained with FITC, was washed three times with PBS 1X, and 200 μL of PBS 1X + 1 μL of iodide per well was added. After staining, the wells were washed again, and 100 μL of PBS 1X was added before imaging.
(§4) The plate was analyzed in the EVOS fluorescence microscope for image acquisition and fluorescence identification, in which the anti-IgG-FITC stains parasite′s membrane in green and iodide stains nuclei in red. On each condition of treatment, 200 cells of 3 wells were evaluated as to the number of infected cells and the number of parasites per cell for calculating the index of infection the IC50 were calculated by Nonlinear regression curves (log[inhibitor] vs normalized response). Selective index was calculated by dividing CC50 per IC50.

[4] = system: T. cruzi intracellular amastigotes (Colombian strain) in C2C12 cells; experiment: Antiamastigote activity, infection index, treatment after infection, C2C12; type: cell-based, Trypanosoma cruzi; details: Trypanosoma cruzi; infected C2C12, 48 h treatment after infection
Experimental: as §1, §2, §3, §4

[5] = Cellular viability (MTT), noninfected LLC-MK2; type: cell-based; details: rhesus monkey, noninfected LLC-MK2 epithelial cells; noninfected LLC-MK2, Table 2 (treatment after infection); read-out: CC50 non infected MK2
Experimental: as §2
(§5) Following 24 h of treatment, 10 μL of 5 mg/mL of MTT (3-(4,5-dimethylthiazol-2-yl)-2,5-diphenyltetrazolium bromide) was added per well, and absorbance was evaluated in the Eon Microplate Spectrophotometer Reader (BioTek) at 570–690 nm. CC50 were calculated by Nonlinear regression curves (log[inhibitor] vs normalized response).

[6] = Cellular viability (MTT), noninfected C2C12; type: cell-based, murine; details: mouse, noninfected C2C12 myoblast cells; noninfected C2C12, Table 2 (treatment after infection); read-out: CC50 non infected C2C12
Experimental: as §2
The LLC-MK2 (ATCC CCL-7) cell line of epithelial origin, and C2C12 (ATCC CRL-1772) myoblast cells, derived from murine myoblasts, were maintained in Roswell Park Memorial Institute-RPMI 1640 medium supplemented with L-glutamine, 25 mM HEPES (Corning), 10% (v/v) fetal bovine serum (FBS), and gentamicin (1 μL/mL). […] Once the cells reached 80% confluence, were detached using Trypsin-EDTA and prepared in the subsequent experiments.
as §5

[7] = system: trypomastigotes forms of T. cruzi Tulahuen strain (LacZ); design: method as in de Andrade et al., 2015; details: previous work of the group; ref de Andrade et al., 2015; read-out: IC50 against trypomastigotes forms of T. cruzi Tulahuen strain (LacZ); cited from earlier work
[8] = system: T. cruzi nitroreductase (TcNTR72); experiment: T. cruzi nitroreductase activity assay (NADH oxidation); details: 50 μM NADH, 25 °C
Experimental: TcNTR72 was expressed, purified, and its activity was tested following previously described protocol. […] This mixture was incubated at room temperature for 5 min. […] All assays were performed in triplicate for each measurement and for each concentration. Benznidazole was used as a control.

[9] = Preliminary cytotoxicity assay, resazurin; type: cell-based; details: human MRC-5 cell line, 3 days incubation
Experimental: MRC-5SV2 cell cytotoxicity was assessed following the methodology outlined in earlier literature. Briefly, cells at a concentration of 1.5 × 10^5 cells/mL were cultured with compound dilutions at 37 °C and 5% CO2. Cell growth was compared to untreated-control wells (100% cell growth) and medium-control wells (0% cell growth). After 3 days of incubation, cell viability was fluorometrically assessed following the addition of 50-μL resazurin per well. Fluorescence was measured after 4 h at 37 °C (λex 550 nm, λem 590 nm). The results were expressed as the percentage reduction in cell growth/viability compared to control wells, and an IC50 value was determined.

[10] = Cytotoxicity against primary mouse macrophages; type: cell-based
Source text: 1 In Vitro Anti- T. cruzi (Trypomastigote) Activity and Cytotoxicity Assessment of Hit 1 Analogs ^a | column: PMM CC50 (μM)

[11] = mouse, primary mouse macrophages (PMM)

SMILES: CC(=O)NC1C(O)C(F)C(F)(C(=O)O)OC1C(O)C(O)CO (stereo not drawn) [2,3-difluorosialic acid]
- Ki ([1]; irreversible inhibitors): 20000 µM

SMILES: O=C(Cn1ccnc1[N+](=O)[O-])NCc1ccccc1 [BZN, reference compound]
- IC50 [2]: 1.64 µM
- IC50 ([3]; Trypanosoma cruzi, LLC-MK2, 48 h): 1.43 ± 0.1 µM
- IC50 [3]: 1.4 ± 0.1 µM
- IC50 [4]: 6 ± 1 µM
- CC50 at 24 h [5]: 46.9 µM
- CC50 at 24 h [6]: 74.4 µM
- IC50 [7]: 34 µM
- Kobs (12.5 μM) ([8]; compound 12.5 μM): 0.13 ± 0.01 s^–1
- Kobs (25 μM) ([8]; compound 25 μM): 0.17 ± 0.05 s^–1
- Kobs (50 μM) ([8]; compound 50 μM): 0.32 ± 0.04 s^–1
- Kobs (100 μM) ([8]; compound 100 μM): 0.23 ± 0.07 s^–1

SMILES: O=C(Cn1cc(-c2ccc([N+](=O)[O-])cc2)nn1)NCc1ccccn1 [Compound 10, 2-(4-(4-Nitrophenyl)-1H-1,2,3-triazol-1-yl)-N-(yridine-2-ylmethyl)acetamide]
- IC50 [2]: > 50 µM
- CC50 at 3 days ([9]; MRC-5SV2 lung fibroblast cells): > 50 µM
- CC50 [10, 11]: > 50 µM

SMILES: O=C(Cn1cc(-c2ccc([N+](=O)[O-])cc2)nn1)NCc1cccnc1 [Compound 11, 2-(4-(4-Nitrophenyl)-1H-1,2,3-triazol-1-yl)-N-((pyridin-3-yl)methyl)acetamide]
- IC50 [2]: > 50 µM
- CC50 at 3 days ([9]; MRC-5SV2 lung fibroblast cells): > 50 µM
- CC50 [10, 11]: > 50 µM

SMILES: O=C(Cn1cc(-c2ccc([N+](=O)[O-])cc2)nn1)NCc1ccc(O)cc1 [Compound 12, N-(4-Hydroxybenzyl)-2-(4-(4-nitrophenyl)-1H-1,2,3-triazol-1-yl)acetamide]
- IC50 [2]: 31 µM
- CC50 at 3 days ([9]; MRC-5SV2 lung fibroblast cells): > 50 µM
- CC50 [10, 11]: > 50 µM

SMILES: N#Cc1ccc(CNC(=O)Cn2cc(-c3ccc([N+](=O)[O-])cc3)nn2)cc1 [Compound 13, N-(4-Cyanobenzyl)-2-(4-(4-nitrophenyl)-1H-1,2,3-triazol-1-yl)acetamide]
- IC50 [2]: > 50 µM
- CC50 at 3 days ([9]; MRC-5SV2 lung fibroblast cells): > 50 µM
- CC50 [10, 11]: 35.4 µM

SMILES: N#Cc1ccc(Cn2cc(-c3ccc([N+](=O)[O-])cc3)nn2)cc1 [Compound 15, 4-((4-(4-Nitrophenyl)-1H-1,2,3-triazol-1-yl)methyl)benzonitrile]
- IC50 [2]: > 50 µM
- CC50 at 3 days ([9]; MRC-5SV2 lung fibroblast cells): > 50 µM
- CC50 [10, 11]: > 50 µM

SMILES: O=C(O)Cn1cc(-c2ccc([N+](=O)[O-])cc2)nn1 [Compound 17, 2-(4-(4-Nitrophenyl)-1H-1,2,3-triazol-1-yl)acetic Acid]
- IC50 [2]: > 50 µM
- CC50 at 3 days ([9]; MRC-5SV2 lung fibroblast cells): > 50 µM
- CC50 [10, 11]: > 50 µM

SMILES: O=C(O)c1ccc(Cn2cc(-c3ccc([N+](=O)[O-])cc3)nn2)cc1 [Compound 18, 4-((4-(4-Nitrophenyl)-1H-1,2,3-triazol-1-yl)methyl)benzoic Acid]
- IC50 [2]: > 50 µM
- CC50 at 3 days ([9]; MRC-5SV2 lung fibroblast cells): > 50 µM
- CC50 [10, 11]: > 50 µM

SMILES: O=[N+]([O-])c1ccc(Cn2cc(-c3ccc(CO)cc3)nn2)cc1 [Compound 21, (4-(1-(4-Nitrobenzyl)-1H-1,2,3-triazol-4-yl)phenyl)methanol]
- IC50 [2]: > 50 µM
- CC50 at 3 days ([9]; MRC-5SV2 lung fibroblast cells): > 50 µM
- CC50 [10, 11]: > 50 µM

SMILES: O=[N+]([O-])c1ccc(Cn2cc(-c3cccnc3)nn2)cc1 [Compound 22, 3-(1-(4-Nitrobenzyl)-1H-1,2,3-triazol-4-yl)pyridine]
- IC50 [2]: 4.17 µM
- CC50 at 3 days ([9]; MRC-5SV2 lung fibroblast cells): 5.06 µM
- CC50 [10, 11]: > 50 µM

SMILES: Nc1ccc(-c2cn(Cc3ccc([N+](=O)[O-])cc3)nn2)cc1 [Compound 23, 4-(1-(4-Nitrobenzyl)-1H-1,2,3-triazol-4-yl)aniline]
- IC50 [2]: > 50 µM
- CC50 at 3 days ([9]; MRC-5SV2 lung fibroblast cells): > 50 µM
- CC50 [10, 11]: > 50 µM

SMILES: O=[N+]([O-])c1ccc(Cn2cc(-c3ccc([N+](=O)[O-])cc3)nn2)cc1 [Compound 24, 1-(4-Nitrobenzyl)-4-(4-nitrophenyl)-1H-1,2,3-triazole]
- IC50 [2]: > 50 µM
- CC50 at 3 days [9]: > 50 µM
- CC50 ([10]; primary mouse macrophages, read-out: PMM CC50): > 50 µM

SMILES: Cn1cncc1-c1cn(Cc2ccc([N+](=O)[O-])cc2)nn1 [Compound 25, 4-(1-Methyl-1H-imidazol-5-yl)-1-(4-nitrobenzyl)-1H-1,2,3-triazole]
- IC50 [2]: > 50 µM
- CC50 at 3 days ([9]; MRC-5SV2 lung fibroblast cells): > 50 µM
- CC50 [10, 11]: > 50 µM

SMILES: COc1cccc(-c2cn(Cc3ccc([N+](=O)[O-])cc3)nn2)c1 [Compound 26, 4-(3-Methoxyphenyl)-1-(4-nitrobenzyl)-1H-1,2,3-triazole]
- IC50 [2]: > 50 µM
- CC50 at 3 days ([9]; MRC-5SV2 lung fibroblast cells): > 50 µM
- CC50 [10, 11]: > 50 µM

SMILES: O=[N+]([O-])c1ccc(Cn2cc(-c3ccccc3CO)nn2)cc1 [Compound 27, (2-(1-(4-Nitrobenzyl)-1H-1,2,3-triazol-4-yl)phenyl)methanol]
- IC50 [2]: > 50 µM
- CC50 at 3 days ([9]; MRC-5SV2 lung fibroblast cells): > 50 µM
- CC50 [10, 11]: > 50 µM

SMILES: COc1cc(OC)cc(-c2cn(Cc3ccc([N+](=O)[O-])cc3)nn2)c1 [Compound 28, 4-(3,5-Dimethoxyphenyl)-1-(4-nitrobenzyl)-1H-1,2,3-triazole]
- IC50 [2]: > 50 µM
- CC50 at 3 days ([9]; MRC-5SV2 lung fibroblast cells): > 50 µM
- CC50 [10, 11]: > 50 µM

SMILES: CCOC(=O)C1=C[C@@H](OC(CC)CC)[C@H](NC(C)=O)[C@@H](N)C1 [Oseltamivir]
- inhibition of trans-sialidase [1]: weak inhibition of trans-sialidase in the millimolar range

SMILES: CC(=O)N[C@H]1[C@H]([C@H](O)[C@H](O)CO)OC(C(=O)O)=C[C@@H]1N=C(N)N [Zanamivir]
- inhibition of trans-sialidase [1]: weak inhibition of trans-sialidase in the millimolar range

SMILES: OC[C@@H](O)[C@@H](O[C@@H]1O[C@H](CO)[C@H](O)[C@H](O)[C@H]1O)[C@H](O)[C@@H](O)CO [lactitol]
- IC50 ([1]; acceptor analog): 570 µM
